Test [1] has as its target T1, Lysosomal acid glucosylceramidase (Homo sapiens, UniProt P04062).
T1 sequence (P04062 whole entry): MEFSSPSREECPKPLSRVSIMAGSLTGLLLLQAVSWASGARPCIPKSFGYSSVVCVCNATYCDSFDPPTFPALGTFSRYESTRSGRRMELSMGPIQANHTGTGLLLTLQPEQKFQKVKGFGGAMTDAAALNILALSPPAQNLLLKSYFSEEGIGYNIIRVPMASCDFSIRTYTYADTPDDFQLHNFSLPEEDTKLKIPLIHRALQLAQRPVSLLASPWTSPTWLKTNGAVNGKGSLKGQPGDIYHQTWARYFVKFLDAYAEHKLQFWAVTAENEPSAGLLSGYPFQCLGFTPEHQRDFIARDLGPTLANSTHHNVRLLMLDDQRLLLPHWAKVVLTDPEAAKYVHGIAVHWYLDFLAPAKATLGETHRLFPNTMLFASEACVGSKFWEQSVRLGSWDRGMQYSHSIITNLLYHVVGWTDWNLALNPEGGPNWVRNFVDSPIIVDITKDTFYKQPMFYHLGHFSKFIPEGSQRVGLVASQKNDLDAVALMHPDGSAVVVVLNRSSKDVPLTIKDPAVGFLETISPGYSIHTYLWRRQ
Description: Inhibition of glucocerebrosidase.

In test [2] the test system is L444P. Description: Increase in non-lysosomal activity of glucocerebrosidase […] mutant in human L444P cells at 150 uM relative to Conduritol B epoxide. The format is cell-based.
The target in test [3] is T2, Lysosomal acid glucosylceramidase (Homo sapiens) (UniProt P04062).
T2 sequence (whole entry): T1 sequence (P04062 whole entry)
Description: Increase in non-lysosomal activity of glucocerebrosidase N370S mutant in human L444P cells at 75 uM relative to Conduritol B epoxide. Type of test: cell-based.

Test [4] addresses T2, Lysosomal acid glucosylceramidase (Homo sapiens). The test is described as follows: Increase in non-lysosomal activity of glucocerebrosidase N370S mutant in human L444P cells at 50 uM relative to Conduritol B epoxide. The format is cell-based.
Test [5] has as its system L444P. The test is described as follows: Increase in non-lysosomal activity of glucocerebrosidase […] mutant in human L444P cells at 20 uM relative to Conduritol B epoxide. Type of test: cell-based.
Test [6] concerns the target T2, Lysosomal acid glucosylceramidase (Homo sapiens). The test is described as follows: Increase in non-lysosomal activity of glucocerebrosidase N370S mutant in human L444P cells at 30 uM relative to Conduritol B epoxide. Type of test: cell-based.
For test [7], the system named is L444P. The test is described as follows: Increase in non-lysosomal activity of glucocerebrosidase […] mutant in human L444P cells at 50 uM relative to Conduritol B epoxide. The format is cell-based.
In test [8] the target is T2, Lysosomal acid glucosylceramidase (Homo sapiens). The test is described as follows: Increase in non-lysosomal activity of glucocerebrosidase N370S mutant in human L444P cells at 20 uM relative to Conduritol B epoxide. The format is cell-based.

Broadly, the IC50 is the midpoint of a concentration-inhibition curve. Higher therefore signals lower potency. The molecule `O=C(CCCCCN1C[C@H](CO)[C@@H](O)[C@H](O)C1)NC12CC3CC(CC(C3)C1)C2` had an IC50 in test [1] of 94 µM. The Activity with L444P [2] is 5.1; in test [3], 2.3.

Turning to `O=C(CCCCN1C[C@H](CO)[C@@H](O)[C@H](O)C1)NC12CC3CC(CC(C3)C1)C2`, the IC50 in test [1] was 11 µM. The Activity with L444P [2] was 7.2; in test [4] it was 1.9.

Take `O=C(CCCN1[C@H](CO)[C@@H](O)[C@H](O)[C@@H]1CO)NC12CC3CC(CC(C3)C1)C2`: the figures for the Activity (in the test on L444P [5]; in test [6]) were 1.6 and 2.2, respectively. The IC50 in test [1] came out at 507 µM.

With `O=C(CCCCN1[C@H](CO)[C@@H](O)[C@H](O)[C@@H]1CO)NC12CC3CC(CC(C3)C1)C2`, half-maximal inhibition in test [1] (IC50) required 393 µM. Further, the Activity is 2.2 in the test on L444P [7] and 1.4 in test [8].

In the case of `O=C(CCCN1C[C@H](CO)[C@@H](O)[C@H](O)C1)NC12CC3CC(CC(C3)C1)C2`, in test [1], the IC50 is 18 µM. Further, the Activity in the test on L444P [2] came out at 7; in test [3] it was 2.5.

These data come from ChEMBL document CHEMBL1139223, “Isofagomine- and 2,5-anhydro-2,5-imino-D-glucitol-based glucocerebrosidase pharmacological chaperones for Gaucher disease intervention” (J Med Chem, 2007).
